Molecules are shown by their SMILES. “Also recorded” adds a separate entry of the source.

One data set has as its target GSK-3A (Homo sapiens, UniProt P49840). Briefly: Safety off-target panel, enzymatic. It is filed as biochemical. Particulars: single point. From the text:
(§1) Table S9-S12 list all targets, their species, inhibition (%) and assay type for the experiments conducted in the
(§2) off-targets. […] The numbers for mean
(§3) inhibition (%) represent single point measurements.
(§4) off-targets. […] The numbers for
(§5) mean inhibition (%) represent single point measurements.

The subject of another data set is HIV-1 PROTEASE
The experiment in a line: Safety off-target panel, enzymatic. The conditions noted are these: 10 µM, single point. It is filed as biochemical.
Description: as §1, §2, §3, §4, §5

The next data set deals with ABL1 (Homo sapiens, UniProt P00519). Briefly: Safety off-target panel, enzymatic. It is filed as biochemical. Particulars: single point.
Description: as §1, §2, §3, §4, §5

Another data set concerns the target ACETYLCHOLINESTERASE (Homo sapiens, UniProt P22303). Briefly: Safety off-target panel, enzymatic. It is filed as biochemical. Particulars: single point.
Description: as §1, §2, §3, §4, §5

For the next data set, the system named is HEK293T cells. The experiment in a line: Cytotoxicity assay on HEK293T cells (Celltiter-glo). It is filed as cell-based, human. Particulars: 16 h and 24 h, 0.05–20 μM, range of cell numbers, result in words. How it is done:
HEK293T cells were seeded at the indicated number per well in DMEM-high glucose, complemented with glutamax, pen-strep, and 10% FBS, in a total of 40 μl of medium. The cells were incubated overnight at 37 °C. Compounds were added to the cells at the indicated concentrations, resulting in a final Dimethylsulfoxid (DMSO) concentration of 0.2%. The compounds were incubated on the cells for either 16 h or 24 h. At the specified time point, the medium was carefully removed from the vessel, leaving only 2 μl in the wells. Celltiter-glo (CTG) reagent (G7572, Promega) was prepared according to the manufacturer’s instructions. Plates with cells were equilibrated at room temperature for 30 min. Subsequently, 25 μl of CTG reagent was added to the cells. The plates were then shaken for 2 min and incubated for an additional 15 min at room temperature. Luminescence was read afterward with BG Pherastar.
(In general: ATP-based viability assays read luminescence as a measure of living cells.)

The target of the next data set is T1, human PPARγ (Homo sapiens, UniProt P37231).
T1 construct: expressed in transfected cells; host or cells: HEK293T
T1 sequence (P37231 238-503 limits assumed): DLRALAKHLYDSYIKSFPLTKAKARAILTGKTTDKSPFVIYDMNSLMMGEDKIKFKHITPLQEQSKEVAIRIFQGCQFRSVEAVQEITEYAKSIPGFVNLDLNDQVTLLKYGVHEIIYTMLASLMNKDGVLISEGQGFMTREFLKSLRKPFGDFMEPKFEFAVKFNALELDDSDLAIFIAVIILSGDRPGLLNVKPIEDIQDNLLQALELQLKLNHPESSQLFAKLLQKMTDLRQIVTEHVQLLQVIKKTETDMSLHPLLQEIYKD
Briefly: Gal4-hybrid reporter gene assay, PPARγ activation. It is filed as cell-based. Particulars: PPARγ, compounds 1 and 2, Table 4; read-out: pEC50 (converted). How it is done: (§6) Compounds 1–3 were characterized in a hybrid reporter gene assay for their agoniztic effect on human nuclear receptors PPARα/γ/δ, RXRα, FXRα, RARα in HEK293T cells. Compound 1 was tested in an isothermal titration calorimetry (ITC) assay to measure direct binding affinity to the ligand-binding domain of PPARγ. ADME properties were measured in standardized assays at Roche.
PPAR activation was determined in uniform Gal4-hybrid reporter gene assays for the PPARα, PPARγ and PPARδ isoforms in HEK293T cells (German Collection of Microorganisms and Cell Culture GmbH, DSMZ) which were transiently transfected with pFR-Luc (Stratagene, La Jolla, CA, USA; reporter) and pRL-SV40 (Promega, Madison, WI, USA; internal control) and one pFA-CMV-hPPAR-LBD[97] clone, coding for the hinge region and ligand binding domain of the canonical isoform of human PPARα, PPARγ, PPARδ or respectively. Cells were cultured in Dulbecco’s modified Eagle’s medium (DMEM), high glucose supplemented with 10% fetal calf serum (FCS), sodium pyruvate (1 mM), penicillin (100 U ⋅ ml^-1), and streptomycin (100 μg ⋅ ml^-1) at 37 °C and 5% CO2 and seeded in 96-well plates (3 × 10^4 cells per well). After 24 h, medium was changed to Opti-MEM without supplements and cells were transiently transfected using Lipofectamine LTX reagent (Invitrogen) according to the manufacturer’s protocol. Five hours after transfection, cells were incubated with the test compounds in Opti-MEM supplemented with penicillin (100 U ⋅ ml^-1), streptomycin (100 μg ⋅ ml^-1) and 0.1% DMSO for 16 h before luciferase activity was measured using the Dual-Glo Luciferase Assay System (Promega) according to the manufacturer’s protocol on a Tecan Spark luminometer (Tecan Deutschland GmbH, Germany). Firefly luminescence was divided by Renilla luminescence and multiplied by 1000 resulting in relative light units (RLU) to normalize for transfection efficiency and cell growth. Fold activation was obtained by dividing the mean RLU of a test compound by the mean RLU of the untreated control. All samples were tested in at least three biologically independent experiments in duplicates. For dose-response curve fitting and calculation of EC50 values, the equation “[Agonist] versus response (variable slope—four parameters)” was used in GraphPad Prism (version 7.00, GraphPad Software, La Jolla, CA, USA) with fold activation data. The reference agonizts GW7647 (PPARα)[98],[99], pioglitazone (PPARγ)[100],[101] and L165,041 (PPARδ)[102],[103] were used to validate the assays and to monitor assay performance. Nuclear receptor selectivity profiling was performed with corresponding pFA-CMV-hNR-LBD clones and suitable reference agonizts on RARα (pFA-CMV-hRARα-LBD[104], 1 μM tretinoin), LXRα (pFA-CMV-hLXRα-LBD[104], 1 μM TO901317) and RXRα (pFA-CMV-h RXRα-LBD[105], 1 μM Bexarotene).
(In general: A reporter such as luciferase makes a cellular process visible.)

The nature of data set [1]: Protein binding, unbound free fraction. It is filed as in vitro ADME. The conditions noted are these: human, plasma. As for the experimental part:
as §6
SI11Absorption Distribution Metabolism and Excretion and Toxicity Data
To assess the drug-like characteristics of the newly designed PPAR modulators, a series of tests were conducted covering various aspects of absorption, distribution, metabolism, and excretion (ADME) properties. Specifically, these assessments included the parallel artificial membrane permeability assay (PAMPA) with permeation co- […]
efficients ([…]), LogD measurements, microsomal clearance, hepatocyte clearance, P-glycoprotein (Pgp) efflux ratio and binding and the unbound free fraction. […]
Table S14: Absorption distribution metabolism and excretion (ADME) properties of compounds 1 and 2. The […]
values for […], LogD, protein binding, P-glycoprotein (Pgp) efflux ratio and permeability, and hepato-cyte clearance are presented as the mean and standard deviation, with a sample size of N = 3, i.e., 3 technical replicates each. The values for microsomal clearance and CYP-inhibition represent single point measurements. […]

ABL1, sequence (P00519 whole entry): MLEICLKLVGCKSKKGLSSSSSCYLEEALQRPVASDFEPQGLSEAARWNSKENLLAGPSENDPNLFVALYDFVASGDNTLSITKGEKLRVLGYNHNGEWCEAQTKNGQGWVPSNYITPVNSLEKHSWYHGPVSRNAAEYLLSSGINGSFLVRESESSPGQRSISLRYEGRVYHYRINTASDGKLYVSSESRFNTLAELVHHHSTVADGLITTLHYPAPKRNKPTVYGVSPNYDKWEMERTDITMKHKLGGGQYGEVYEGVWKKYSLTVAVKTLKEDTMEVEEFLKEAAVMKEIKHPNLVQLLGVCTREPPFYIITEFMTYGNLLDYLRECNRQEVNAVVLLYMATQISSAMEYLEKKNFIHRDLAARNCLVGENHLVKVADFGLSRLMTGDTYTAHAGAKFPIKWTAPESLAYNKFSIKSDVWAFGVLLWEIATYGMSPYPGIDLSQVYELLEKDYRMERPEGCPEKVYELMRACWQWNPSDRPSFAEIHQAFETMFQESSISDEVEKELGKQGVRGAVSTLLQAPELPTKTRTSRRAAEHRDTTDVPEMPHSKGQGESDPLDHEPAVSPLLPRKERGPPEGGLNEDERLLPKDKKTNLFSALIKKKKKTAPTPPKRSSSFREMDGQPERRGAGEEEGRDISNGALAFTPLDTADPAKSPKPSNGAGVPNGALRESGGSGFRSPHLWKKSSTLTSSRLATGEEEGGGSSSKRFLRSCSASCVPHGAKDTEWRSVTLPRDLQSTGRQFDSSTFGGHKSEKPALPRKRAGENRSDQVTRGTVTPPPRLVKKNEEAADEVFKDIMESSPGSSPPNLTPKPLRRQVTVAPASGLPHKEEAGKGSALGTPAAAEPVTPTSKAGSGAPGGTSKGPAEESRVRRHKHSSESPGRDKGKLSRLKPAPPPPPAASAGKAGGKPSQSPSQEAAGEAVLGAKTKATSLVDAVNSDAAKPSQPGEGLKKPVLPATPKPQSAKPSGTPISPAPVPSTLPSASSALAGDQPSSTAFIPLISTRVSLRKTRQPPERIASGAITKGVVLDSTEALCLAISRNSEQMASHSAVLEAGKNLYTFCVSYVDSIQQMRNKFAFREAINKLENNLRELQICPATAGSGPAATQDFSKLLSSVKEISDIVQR
UniProt P22303, sequence (P22303 32-614): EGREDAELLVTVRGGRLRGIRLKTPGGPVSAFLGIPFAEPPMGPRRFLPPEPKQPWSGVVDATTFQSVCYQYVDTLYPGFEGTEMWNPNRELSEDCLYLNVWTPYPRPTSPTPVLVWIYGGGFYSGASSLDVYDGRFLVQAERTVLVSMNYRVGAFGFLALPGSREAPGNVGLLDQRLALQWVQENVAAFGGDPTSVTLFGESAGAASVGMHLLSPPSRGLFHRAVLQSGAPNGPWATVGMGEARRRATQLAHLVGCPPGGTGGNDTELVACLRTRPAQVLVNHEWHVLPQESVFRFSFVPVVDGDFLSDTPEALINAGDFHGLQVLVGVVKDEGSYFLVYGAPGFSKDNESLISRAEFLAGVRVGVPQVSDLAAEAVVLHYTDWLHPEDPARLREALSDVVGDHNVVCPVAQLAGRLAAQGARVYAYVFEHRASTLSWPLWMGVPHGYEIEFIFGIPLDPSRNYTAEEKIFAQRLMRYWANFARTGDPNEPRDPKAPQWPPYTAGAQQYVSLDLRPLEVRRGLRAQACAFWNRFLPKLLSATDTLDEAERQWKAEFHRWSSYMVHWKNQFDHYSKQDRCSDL
GSK-3A, sequence (P49840 whole entry): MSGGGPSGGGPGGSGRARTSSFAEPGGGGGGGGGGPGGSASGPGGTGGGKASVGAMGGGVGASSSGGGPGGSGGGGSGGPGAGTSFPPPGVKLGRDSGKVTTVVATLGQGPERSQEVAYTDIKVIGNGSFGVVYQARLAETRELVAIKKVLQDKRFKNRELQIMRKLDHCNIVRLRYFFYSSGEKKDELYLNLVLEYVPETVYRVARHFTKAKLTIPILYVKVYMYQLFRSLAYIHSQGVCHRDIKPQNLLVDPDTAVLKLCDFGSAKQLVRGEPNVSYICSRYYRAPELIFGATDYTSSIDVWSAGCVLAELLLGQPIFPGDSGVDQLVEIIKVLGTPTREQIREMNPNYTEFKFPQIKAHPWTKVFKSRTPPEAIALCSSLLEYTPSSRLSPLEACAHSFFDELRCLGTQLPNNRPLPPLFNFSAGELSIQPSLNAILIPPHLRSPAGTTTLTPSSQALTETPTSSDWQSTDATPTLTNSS

For the compound `Cc1nnc(-c2ccc(OCCCOc3ccc(CCC(=O)O)c(F)c3)c(F)c2)s1` [Compound 1], the inhibition (as a rule, the change of the read-out against control, counted positive when it falls) at 10 µM was determined as 39.6% at GSK-3A, 4.4% against ABL1 and 0% at ACETYLCHOLINESTERASE. For the same compound, the “Mean inhibition (%)” value in the data set with HIV-1 PROTEASE is recorded as 8.2%. Moreover, the “cytotoxicity on HEK293T cells” value in the data set with HEK293T cells is “did not indicate any cytotoxicity; also recorded: No cytotoxic effects”. In addition, the EC50 at human PPARγ was 1480 nM. Besides, the fraction unbound – broadly, the share of the substance not bound to proteins or other matrix – in data set [1] was 0.0021.

For the compound `COc1ccc(Oc2ccc3ncn(CCOc4ccc(CCC(=O)O)cc4)c3c2)cc1` [Compound 2], the inhibition at 10 µM against GSK-3A is -8.8%; against ABL1 it was -11%; against ACETYLCHOLINESTERASE it was 2%. The “Mean inhibition (%)” value in the data set with HIV-1 PROTEASE is on record as 0.2%. Also, the “cytotoxicity on HEK293T cells” value in the data set with HEK293T cells was “did not indicate any cytotoxicity; also recorded: No cytotoxic effects”. The EC50 at human PPARγ is 2290 nM. The same compound had a fraction unbound in data set [1] of 0.0042.

Values taken from PMC11035696, “Prospective de novo drug design with deep interactome learning” (Nature Communications, 2024).
